Data as given in US9351987B2, “Compositions for treating heartworm infestation” (CEVA SANTE ANIMALE, priority 2010, dated 2016).
Like-named read-outs stand apart in the source and are kept apart here.

How the values were obtained:
[1] = test system: Dirofilaria larvae; experiment: Effective ivermectin rate against Dirofilaria larvae; type: in vivo; conditions: established by the present inventors
Description: Currently approved dosages of ivermectin are about 6 mcg/kg orally or 200 mcg/kg subcutaneously. […] Cunningham C P et al., (Am. J. Vet, Res., 2006, 67) brought evidence that this effective rate might be around 0.2 ng/mL of ivermectin in the plasma.
Also, the formulations according to the present invention provide a long term protection, e.g., at least 6 months, 12 months, or 18 months up to 24 months against infections caused by parasites.

[2] = 14-week oral study, cited from earlier work
[3] = estimated from reports from non recommended use of the drug; cited from earlier work
[4] = 36-day study, beagle dogs, cited from earlier work
[5] = Plasma ivermectin concentration after ivermectin implant in dogs; type: in vivo, dog
Description: The concentrations of ivermectin (ng/mL) in the plasma, collected in the jugular vein at day 0 to day 429, are presented in Table 2.
The concentrations of ivermectin in the plasma, collected in the jugular vein, have been evaluated during 429 days for dogs A and […] (Table 2, Example 1) or just dosed until D365 for dogs C and D.

[6] = test system: Dirofilaria larvae; conditions: cited from earlier work

## CC[C@H](C)[C@H]1O[C@]2(CC[C@@H]1C)C[C@@H]1C[C@@H](C/C=C(\C)[C@@H](O[C@H]3C[C@H](OC)[C@@H](O[C@H]4C[C@H](OC)[C@@H](O)[C@H](C)O4)[C@H](C)O3)[C@@H](C)/C=C/C=C3\CO[C@@H]4[C@H](O)C(C)=C[C@@H](C(=O)O1)[C@]34O)O2 [Ivermectin]
[1]
  Effective rate of ivermectin in the plasma: around 0.1 ng/mL
[2]; beagle dogs (4/sex/group)
  No Observable Effect Levels (NOEL): 0.5 mg/kg bw
[2]; beagle dogs, 2.0 mg/kg bw group
  Signs developed (four dogs, killed prior to the end of the study): tremors, ataxia, anorexia and dehydration
[2]; beagle dogs, 1.0 and 2.0 mg/kg bw
  Signs observed: mydriasis and slight weight loss
[3]
  Share of collie dogs highly sensitive to ivermectin: Approximately 30%
[4]; oral 0.5 and 2.0 mg/kg bw
  Time to steady-state of H2B1a in plasma: after about three weeks
[4]; oral 0.5 vs 2.0 mg/kg bw
  Average increase in plasma levels on a four-fold increase in the dose: eight-fold
[5]; dog A (6% ivermectin implant), day 1
  Ivermectin concentration in plasma: 6.25 ng/mL
[5]; dog A (6% ivermectin implant), day 2
  Ivermectin concentration in plasma: 5.29 ng/mL
[5]; dog A (6% ivermectin implant), day 4
  Ivermectin concentration in plasma: 5.25 ng/mL
[5]; dog A (6% ivermectin implant), day 10
  Ivermectin concentration in plasma: 2.56 ng/mL
[5]; dog A (6% ivermectin implant), day 21
  Ivermectin concentration in plasma: 1.35 ng/mL
[5]; dog A (6% ivermectin implant), day 30
  Ivermectin concentration in plasma: 0.91 ng/mL
[5]; dog A (6% ivermectin implant), day 39
  Ivermectin concentration in plasma: 1.09 ng/mL
[5]; dog A (6% ivermectin implant), day 60
  Ivermectin concentration in plasma: 0.76 ng/mL
[5]; dog A (6% ivermectin implant), day 78
  Ivermectin concentration in plasma: 0.67 ng/mL
[5]; dog A (6% ivermectin implant), day 99
  Ivermectin concentration in plasma: 0.26 ng/mL
[5]; dog A (6% ivermectin implant), day 120
  Ivermectin concentration in plasma: 0.44 ng/mL
[5]; dog A (6% ivermectin implant), day 141
  Ivermectin concentration in plasma: 0.28 ng/mL
[5]; dog A (6% ivermectin implant), day 162
  Ivermectin concentration in plasma: 0.18 ng/mL
[5]; dog A (6% ivermectin implant), day 183
  Ivermectin concentration in plasma: 0.13 ng/mL
[5]; dog A (6% ivermectin implant), day 211
  Ivermectin concentration in plasma: 0.14 ng/mL
[5]; dog A (6% ivermectin implant), day 239
  Ivermectin concentration in plasma: 0.10 ng/mL
[5]; dog A (6% ivermectin implant), day 266
  Ivermectin concentration in plasma: 0.12 ng/mL
[5]; dog A (6% ivermectin implant), day 295
  Ivermectin concentration in plasma: 0.07 ng/mL
[5]; dog A (6% ivermectin implant), day 329
  Ivermectin concentration in plasma: 0.06 ng/mL
[5]; dog A (6% ivermectin implant), day 365
  Ivermectin concentration in plasma: 0.14 ng/mL
[5]; dog A (6% ivermectin implant), day 380
  Ivermectin concentration in plasma: 0.14 ng/mL
[5]; dog A (6% ivermectin implant), day 395
  Ivermectin concentration in plasma: 0.17 ng/mL
[5]; dog A (6% ivermectin implant), day 429
  Ivermectin concentration in plasma: 0.20 ng/mL
[5]; dog B (6% ivermectin implant), day 1
  Ivermectin concentration in plasma: 3.50 ng/mL
[5]; dog B (6% ivermectin implant), day 2
  Ivermectin concentration in plasma: 3.04 ng/mL
[5]; dog B (6% ivermectin implant), day 4
  Ivermectin concentration in plasma: 2.62 ng/mL
[5]; dog B (6% ivermectin implant), day 10
  Ivermectin concentration in plasma: 0.97 ng/mL
[5]; dog B (6% ivermectin implant), day 21
  Ivermectin concentration in plasma: 1.92 ng/mL
[5]; dog B (6% ivermectin implant), day 30
  Ivermectin concentration in plasma: 1.01 ng/mL
[5]; dog B (6% ivermectin implant), day 39
  Ivermectin concentration in plasma: 1.02 ng/mL
[5]; dog B (6% ivermectin implant), day 60
  Ivermectin concentration in plasma: 0.51 ng/mL
[5]; dog B (6% ivermectin implant), day 78
  Ivermectin concentration in plasma: 0.29 ng/mL
[5]; dog B (6% ivermectin implant), day 99
  Ivermectin concentration in plasma: 0.11 ng/mL
[5]; dog B (6% ivermectin implant), day 120
  Ivermectin concentration in plasma: 0.30 ng/mL
[5]; dog B (6% ivermectin implant), day 141
  Ivermectin concentration in plasma: 0.23 ng/mL
[5]; dog B (6% ivermectin implant), day 162
  Ivermectin concentration in plasma: 0.10 ng/mL
[5]; dog B (6% ivermectin implant), day 183
  Ivermectin concentration in plasma: 0.11 ng/mL
[5]; dog B (6% ivermectin implant), day 211
  Ivermectin concentration in plasma: 0.24 ng/mL
[5]; dog B (6% ivermectin implant), day 239
  Ivermectin concentration in plasma: 0.05 ng/mL
[5]; dog B (6% ivermectin implant), day 266
  Ivermectin concentration in plasma: 0.10 ng/mL
[5]; dog B (6% ivermectin implant), day 295
  Ivermectin concentration in plasma: 0.06 ng/mL
[5]; dog B (6% ivermectin implant), day 365
  Ivermectin concentration in plasma: 0.06 ng/mL
[5]; dog B (6% ivermectin implant), day 380
  Ivermectin concentration in plasma: 0.06 ng/mL
[5]; dog B (6% ivermectin implant), day 395
  Ivermectin concentration in plasma: 0.08 ng/mL
[5]; dog B (6% ivermectin implant), day 429
  Ivermectin concentration in plasma: 0.06 ng/mL
[5]; dog C (4.5% ivermectin implant), day 1
  Ivermectin concentration in plasma: 6.93 ng/mL
[5]; dog C (4.5% ivermectin implant), day 2
  Ivermectin concentration in plasma: 6.42 ng/mL
[5]; dog C (4.5% ivermectin implant), day 4
  Ivermectin concentration in plasma: 4.77 ng/mL
[5]; dog C (4.5% ivermectin implant), day 10
  Ivermectin concentration in plasma: 2.64 ng/mL
[5]; dog C (4.5% ivermectin implant), day 21
  Ivermectin concentration in plasma: 2.14 ng/mL
[5]; dog C (4.5% ivermectin implant), day 30
  Ivermectin concentration in plasma: 1.79 ng/mL
[5]; dog C (4.5% ivermectin implant), day 39
  Ivermectin concentration in plasma: 1.74 ng/mL
[5]; dog C (4.5% ivermectin implant), day 60
  Ivermectin concentration in plasma: 0.28 ng/mL
[5]; dog C (4.5% ivermectin implant), day 78
  Ivermectin concentration in plasma: 0.17 ng/mL
[5]; dog C (4.5% ivermectin implant), day 99
  Ivermectin concentration in plasma: 0.21 ng/mL
[5]; dog C (4.5% ivermectin implant), day 120
  Ivermectin concentration in plasma: 0.27 ng/mL
[5]; dog C (4.5% ivermectin implant), day 141
  Ivermectin concentration in plasma: 0.26 ng/mL
[5]; dog C (4.5% ivermectin implant), day 162
  Ivermectin concentration in plasma: 0.17 ng/mL
[5]; dog C (4.5% ivermectin implant), day 183
  Ivermectin concentration in plasma: 0.17 ng/mL
[5]; dog C (4.5% ivermectin implant), day 211
  Ivermectin concentration in plasma: 0.15 ng/mL
[5]; dog C (4.5% ivermectin implant), day 239
  Ivermectin concentration in plasma: 0.11 ng/mL
[5]; dog C (4.5% ivermectin implant), day 266
  Ivermectin concentration in plasma: 0.13 ng/mL
[5]; dog C (4.5% ivermectin implant), day 295
  Ivermectin concentration in plasma: 0.13 ng/mL
[5]; dog C (4.5% ivermectin implant), day 329
  Ivermectin concentration in plasma: 0.06 ng/mL
[5]; dog C (4.5% ivermectin implant), day 365
  Ivermectin concentration in plasma: 0.16 ng/mL
[5]; dog D (3% ivermectin implant), day 1
  Ivermectin concentration in plasma: 7.63 ng/mL
[5]; dog D (3% ivermectin implant), day 2
  Ivermectin concentration in plasma: 6.95 ng/mL
[5]; dog D (3% ivermectin implant), day 4
  Ivermectin concentration in plasma: 4.35 ng/mL
[5]; dog D (3% ivermectin implant), day 10
  Ivermectin concentration in plasma: 3.82 ng/mL
[5]; dog D (3% ivermectin implant), day 21
  Ivermectin concentration in plasma: 1.23 ng/mL
[5]; dog D (3% ivermectin implant), day 30
  Ivermectin concentration in plasma: 1.54 ng/mL
[5]; dog D (3% ivermectin implant), day 39
  Ivermectin concentration in plasma: 1.15 ng/mL
[5]; dog D (3% ivermectin implant), day 60
  Ivermectin concentration in plasma: 0.84 ng/mL
[5]; dog D (3% ivermectin implant), day 78
  Ivermectin concentration in plasma: 0.52 ng/mL
[5]; dog D (3% ivermectin implant), day 99
  Ivermectin concentration in plasma: 0.69 ng/mL
[5]; dog D (3% ivermectin implant), day 120
  Ivermectin concentration in plasma: 0.87 ng/mL
[5]; dog D (3% ivermectin implant), day 141
  Ivermectin concentration in plasma: 0.65 ng/mL
[5]; dog D (3% ivermectin implant), day 162
  Ivermectin concentration in plasma: 0.45 ng/mL
[5]; dog D (3% ivermectin implant), day 183
  Ivermectin concentration in plasma: 0.51 ng/mL
[5]; dog D (3% ivermectin implant), day 211
  Ivermectin concentration in plasma: 0.29 ng/mL
[5]; dog D (3% ivermectin implant), day 239
  Ivermectin concentration in plasma: 0.18 ng/mL
[5]; dog D (3% ivermectin implant), day 266
  Ivermectin concentration in plasma: 0.22 ng/mL
[5]; dog D (3% ivermectin implant), day 295
  Ivermectin concentration in plasma: 0.13 ng/mL
[5]; dog D (3% ivermectin implant), day 329
  Ivermectin concentration in plasma: 0.13 ng/mL
[5]; dog D (3% ivermectin implant), day 365
  Ivermectin concentration in plasma: 0.09 ng/mL
[6]; Cunningham C P et al., Am. J. Vet. Res., 2006, 67
  Effective rate of ivermectin in the plasma: around 0.2 ng/mL
[6]; ivermectin administered per se at 6 mcg/kg, generally reported
  Effect on Dirofilaria larvae: able to kill efficiency one month aged Dirofilaria larvae
